The experiment deals with ICR male mouse. The experiment in a line: Mouse ear swelling suppressing activity (TPA-induced edema). The following applies: applied to the ear 30 minutes before the TPA application; measured 4 hours after TPA; Mozuku extract 0.25 or 0.5 mg/ear, indomethacin 0.2 mg/ear (FIG. 4). The format is in vivo. Here is the method: Mouse ear swelling suppressing activity of the Mozuku extract was examined as follows. The thickness of the ear of an ICR male mouse (age: 5 weeks) was measured using a thickness gauge (Digimatic Indicator 543, manufactured by Mitsutoyo Co., Ltd.). The Mozuku extract was applied to the ear in the amount of 0.25 mg/ear or 0.5 mg/ear. As a comparative test, an indomethacin solution, prepared by dissolving indomethacin at a concentration of 1.0% in 70% acetone, was applied to the mouse ear in the amount of 0.2 mg/ear. 30 minutes after the application, 10 μl of a […] solution of 12-O-tetradecanoylphorbol-13-acetate (TPA) in 70% acetone was applied to the in and out sides of the mouse ear to induce a skin reaction. The thickness of the ear skin was measured after 4 hours at which the value of the swelling became the maximum. The ratio of the measured thickness to the thickness of the ear skin before the edema induction was calculated as the ratio of edema. The thickness of both the right and left ear skins was measured and the values were averaged to determine the ear skin thickness of the mouse.

With `COc1ccc2c(c1)c(CC(=O)O)c(C)n2C(=O)c1ccc(Cl)cc1` [indomethacin], the “edema suppressing effect (ratio of edema, ear skin thickness)” value is given as “remarkable edema suppressing effect”.

For the origin of these results see US20040057913A1, “Antioxidant and skin preparations for external use” (priority 2000, published 2004).
